Reference: paper PMC6749389, “Synthesis and In Vitro Anti-Toxoplasma gondii Activity of Novel Thiazolidin-4-one Derivatives” (Molecules, 2019)

Assays:
[1] = Cytotoxic assay (MTT, ISO 10993-5:2009(E)), 24 h treatment; assay type: cell-based; conditions: L929 mouse fibroblast cells, L929 mouse fibroblasts, values above highest tested concentration extrapolated
Method: The L929 mouse fibroblast (ATTC® CCL-1™, Manassas, VA, USA) were culturing according to the ATCC product sheet. […] The cell viability assay were performed precisely according to international standards (ISO 10993-5:2009(E)), using the tetrazolium salt [3-(4,5-dimethylthiazol-2-yl)-2,5-diphenyltetrazolium bromide] (MTT, Sigma-Aldrich) and mouse fibroblasts L929 cells. Cells (1 × 10^4 per well) were treated 24 h with compounds or drug in different concentration range. The optical density at 570 nm on the ELISA reader (Multiskan EX, Labsystems, Vienna, VA, USA), was read. The results were expressed as a percentage of viability compared to untreated cells. […] The CC30/CC50 represents the concentration of tested compounds or drugs that was required for 30% or 50% cells proliferation inhibition in vitro. According to the previously mentioned ISO 10993-5:2009(E) norm, the CC30 value is recognized as non-cytotoxic concentration for the cell line. All experiments were performed in triplicate.

Row | Compound | melting point | CC50 at 24 h [1]
1 | O=C1CSC(=NN=Cc2cccc(O)c2)N1c1ccc(F)cc1 [Compound 68, 3-(4-Fluorophenyl)-2-{[(3-hydroxyphenyl)methylidene]hydrazinylidene}-1,3-thiazolidin-4-one] | 204 to 206 °C | 180 µM
2 | O=C1CSC(=NN=Cc2cccc(O)c2)N1c1ccc(Cl)cc1 [Compound 58, 3-(4-Chlorophenyl)-2-{[(3-hydroxyphenyl)methylidene]hydrazinylidene}-1,3-thiazolidin-4-one] | 230 to 232 °C | 173 µM
3 | CCOc1cc(C=NN=C2SCC(=O)N2c2cccc(Cl)c2)ccc1O [Compound 56, 3-(3-Chlorophenyl)-2-{[(3-ethoxy-4-hydroxyphenyl)methylidene]hydrazinylidene}-1,3-thiazolidin-4-one] | 214 to 216 °C | –
4 | COc1cc(C=NN=C2SC(CC(=O)O)C(=O)N2c2ccccc2)ccc1O (centres unmarked) [Compound 77, [2-{[(4-Hydroxy-3-methoxyphenyl)methylidene]hydrazinylidene}-4-oxo-3-phenyl-1,3-thiazolidin-5-yl]acetic acid] | – | ≥ 1000 µM
5 | O=C1CSC(=NN=Cc2ccc(O)cc2)N1c1cccc(Cl)c1 [Compound 54, 3-(3-Chlorophenyl)-2-{[(4-hydroxyphenyl)methylidene]hydrazinylidene}-1,3-thiazolidin-4-one] | 262 to 264 °C | 289 µM
6 | O=C1CSC(=NN=Cc2ccc(O)c(Cl)c2)N1c1ccccc1 [Compound 46, 2-{[(3-Chloro-4-hydroxyphenyl)methylidene]hydrazinylidene}-3-phenyl-1,3-thiazolidin-4-one] | 215 to 216 °C | –
7 | O=C1CSC(=NN=Cc2ccc(O)c(Br)c2)N1c1ccccc1 [Compound 47, 2-{[(3-Bromo-4-hydroxyphenyl)methylidene]hydrazinylidene}-3-phenyl-1,3-thiazolidin-4-one] | 216 to 218 °C | –
8 | COC(=O)C=C1SC(=NN=Cc2ccccc2O)N(c2ccccc2)C1=O [Compound 89, Methyl [2-{[(2-hydroxyphenyl)methylidene]hydrazinylidene}-4-oxo-3-phenyl-1,3-thiazolidin-5-ylidene]acetate] | 242 to 244 °C | 304 µM
9 | O=C1CSC(=NN=Cc2ccc(O)cc2)N1c1ccc(F)cc1 [Compound 69, 3-(4-Fluorophenyl)-2-{[(4-hydroxyphenyl)methylidene]hydrazinylidene}-1,3-thiazolidin-4-one] | – | 386 µM
10 | O=C(O)CC1SC(=NN=Cc2ccc(O)cc2)N(c2ccccc2)C1=O (centres unmarked) [Compound 76, [2-{[(4-Hydroxyphenyl)methylidene]hydrazinylidene}-4-oxo-3-phenyl-1,3-thiazolidin-5-yl]acetic acid] | 236 to 238 °C | ≥ 1000 µM
11 | O=C1CSC(=NN=Cc2ccc(O)c(Cl)c2)N1c1ccc(F)cc1 [Compound 72, 2-{[(3-Chloro-4-hydroxyphenyl)methylidene]hydrazinylidene}-3-(4-fluorophenyl)-1,3-thiazolidin-4-one] | 222 to 224 °C | –
12 | CCOc1cc(C=NN=C2SCC(=O)N2c2ccccc2)ccc1O [Compound 45, 2-{[(3-Ethoxy-4-hydroxyphenyl)methylidene]hydrazinylidene}-3-phenyl-1,3-thiazolidin-4-one] | 229 to 230 °C | –
13 | COc1cc(C=NN=C2SCC(=O)N2c2ccc(Cl)cc2)ccc1O [Compound 60, 3-(4-Chlorophenyl)-2-{[(4-hydroxy-3-methoxyphenyl)methylidene]hydrazinylidene}-1,3-thiazolidin-4-one] | 226 to 228 °C | –
14 | O=C1CSC(=NN=Cc2ccccc2O)N1c1cccc(Cl)c1 [Compound 52, 3-(3-Chlorophenyl)-2-{[(2-hydroxyphenyl)methylidene]hydrazinylidene}-1,3-thiazolidin-4-one] | 194 to 196 °C | –
15 | O=C1CSC(=NN=Cc2ccc(O)cc2)N1c1ccccc1 [Compound 43, 2-{[(4-Hydroxyphenyl)methylidene]hydrazinylidene}-3-phenyl-1,3-thiazolidin-4-one] | – | 485 µM
16 | O=C1CSC(=NN=Cc2ccc(O)c(Cl)c2)N1c1ccc(Cl)cc1 [Compound 62, 2-{[(3-Chloro-4-hydroxyphenyl)methylidene]hydrazinylidene}-3-(4-chlorophenyl)-1,3-thiazolidin-4-one] | 231 to 233 °C | –
17 | O=C1CSC(=NN=Cc2ccccc2O)N1c1ccc(Cl)cc1 [Compound 57, 3-(4-Chlorophenyl)-2-{[(2-hydroxyphenyl)methylidene]hydrazinylidene}-1,3-thiazolidin-4-one] | 238 to 240 °C | –

The next lines start with results.

Row | melting point | Compound | CC50 at 24 h [1]
18 | 235 to 236 °C | O=C1CSC(=NN=Cc2ccc(O)c(Br)c2)N1c1ccc(Cl)cc1 [Compound 63, 2-{[(3-Bromo-4-hydroxyphenyl)methylidene]hydrazinylidene}-3-(4-chlorophenyl)-1,3-thiazolidin-4-one] | –
19 | 198 to 200 °C | O=C1CSC(=NN=Cc2cccc(O)c2)N1c1cccc(Cl)c1 [Compound 53, 3-(3-Chlorophenyl)-2-{[(3-hydroxyphenyl)methylidene]hydrazinylidene}-1,3-thiazolidin-4-one] | 113 µM
20 | 250 to 251 °C | COC(=O)C=C1SC(=NN=Cc2ccc(O)cc2)N(c2ccc(Cl)cc2)C1=O [Compound 99, Methyl [3-(4-chlorophenyl)-2-{[(4-hydroxyphenyl)methylidene]hydrazinylidene}-4-oxo-1,3-thiazolidin-5-ylidene]acetate] | 230 µM
21 | 288 to 290 °C | O=C1CSC(=NN=Cc2ccc(O)cc2)N1c1ccc(Br)cc1 [Compound 66, 3-(4-Bromophenyl)-2-{[(4-hydroxyphenyl)methylidene]hydrazinylidene}-1,3-thiazolidin-4-one] | 247 µM
22 | 242 to 244 °C | O=C1CSC(=NN=Cc2cccc(O)c2)N1c1ccc(Br)cc1 [Compound 65, 3-(4-Bromophenyl)-2-{[(3-hydroxyphenyl)methylidene]hydrazinylidene}-1,3-thiazolidin-4-one] | 83.5 µM
23 | 218 to 220 °C | CCOc1cc(C=NN=C2SCC(=O)N2c2ccc(Cl)cc2)ccc1O [Compound 61, 3-(4-Chlorophenyl)-2-{[(3-ethoxy-4-hydroxyphenyl)methylidene]hydrazinylidene}-1,3-thiazolidin-4-one] | –
24 | 252 to 254 °C | O=C(O)CC1SC(=NN=Cc2ccc(O)c(Br)c2)N(c2ccccc2)C1=O (centres unmarked) [Compound 80, [2-{[(3-Bromo-4-hydroxyphenyl)methylidene]hydrazinylidene}-4-oxo-3-phenyl-1,3-thiazolidin-5-yl]acetic acid] | ≥ 1000 µM
25 | 240 to 242 °C | CCOc1cc(C=NN=C2SCC(=O)N2c2ccc(F)cc2)ccc1O [Compound 71, 2-{[(3-Ethoxy-4-hydroxyphenyl)methylidene]hydrazinylidene}-3-(4-fluorophenyl)-1,3-thiazolidin-4-one] | –
26 | 236 to 238 °C | COc1cc(C=NN=C2SCC(=O)N2c2ccc(F)cc2)ccc1O [Compound 70, 3-(4-Fluorophenyl)-2-{[(4-hydroxy-3-methoxyphenyl)methylidene]hydrazinylidene}-1,3-thiazolidin-4-one] | –
27 | 210 to 212 °C | COc1cc(C=NN=C2SCC(=O)N2c2cccc(Cl)c2)ccc1O [Compound 55, 3-(3-Chlorophenyl)-2-{[(4-hydroxy-3-methoxyphenyl)methylidene]hydrazinylidene}-1,3-thiazolidin-4-one] | –
28 | 196 to 198 °C | CCOc1cc(C=NN=C2SCC(=O)N2c2ccccc2Cl)ccc1O [Compound 51, 3-(2-Chlorophenyl)-2-{[(3-ethoxy-4-hydroxyphenyl)methylidene]hydrazinylidene}-1,3-thiazolidin-4-one] | –
29 | 235 to 236 °C | O=C1CSC(=NN=Cc2cccc(O)c2)N1c1ccccc1 [Compound 42, 2-{[(3-Hydroxyphenyl)methylidene]hydrazinylidene}-3-phenyl-1,3-thiazolidin-4-one] | 234 µM
30 | 280 to 282 °C | O=C1CSC(=NN=Cc2ccc(O)cc2)N1c1ccc(Cl)cc1 [Compound 59, 3-(4-Chlorophenyl)-2-{[(4-hydroxyphenyl)methylidene]hydrazinylidene}-1,3-thiazolidin-4-one] | 318 µM
31 | 228 to 230 °C | O=C(O)CC1SC(=NN=Cc2ccccc2O)N(c2ccccc2)C1=O (centres unmarked) [Compound 74, [2-{[(2-Hydroxyphenyl)methylidene]hydrazinylidene}-4-oxo-3-phenyl-1,3-thiazolidin-5-yl]acetic acid] | 501 µM
32 | 168 to 170 °C | O=C1CSC(=NN=Cc2ccccc2O)N1c1ccccc1Cl [Compound 48, 3-(2-Chlorophenyl)-2-{[(2-hydroxyphenyl)methylidene]hydrazinylidene}-1,3-thiazolidin-4-one] | –
33 | 224 to 226 °C | O=C1CSC(=NN=Cc2ccc(O)c(Br)c2)N1c1ccc(F)cc1 [Compound 73, 2-{[(3-Bromo-4-hydroxyphenyl)methylidene]hydrazinylidene}-3-(4-fluorophenyl)-1,3-thiazolidin-4-one] | –
34 | 140 to 142 °C | COc1cc(C=NN=C2SCC(=O)N2c2ccc(Cl)cc2Cl)ccc1O [Compound 64, 3-(2,4-Dichlorophenyl)-2-{[(4-hydroxy-3-methoxyphenyl)methylidene]hydrazinylidene}-1,3-thiazolidin-4-one] | –
